Measurements from patent US20140155334A1, “POLYPHOSPHATE AND PYROPHOSPHATE DERIVATIVE OF SACCHARIDES” (Université de Strasbourg, priority 2010, published 2014).

The compounds below were run against T1, stripped human Hb (Homo sapiens, UniProt P68871+P69905) (assay: Oxygen equilibrium curves of stripped hemoglobin (Hemox Analyzer), P50 shift). Settings: compound:Hb molar ratio 20:1, TES-saline buffer pH 7.4.
T1 construct: from tissue; host or cells: human blood (red blood cell hemolysate, gel-filtered on Sephadex G-25 to remove BPG)
T1 sequence (P68871 2-147 limits assumed): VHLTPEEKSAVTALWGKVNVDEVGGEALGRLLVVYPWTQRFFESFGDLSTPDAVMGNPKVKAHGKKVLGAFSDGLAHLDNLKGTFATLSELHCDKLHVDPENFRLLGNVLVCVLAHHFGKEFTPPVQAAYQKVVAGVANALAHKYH
T1 sequence (P69905 2-142 limits assumed): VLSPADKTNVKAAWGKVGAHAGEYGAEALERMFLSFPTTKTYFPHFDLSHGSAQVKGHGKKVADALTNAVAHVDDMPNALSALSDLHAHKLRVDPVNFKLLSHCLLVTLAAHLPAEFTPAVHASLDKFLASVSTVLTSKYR
Type: biochemical
Source text: Human blood was withdrawn from non-smoking healthy volunteers (CDD) in heparinized microtubes and treated according to the procedure described by Riggs. See A. Riggs, Methods Enzymol. 1981, 76, 5. Red blood cells were washed three times with 0.85% saline and lysed by the addition of 1 volume of purified water per volume of packed red blood cells. Hemolysate was kept cold and passed through a Sephadex G-25 column (1.0×20 cm) equilibrated with 0.1 M NaCl with 10^−5 M EDTA pH 7.5, to remove BPG. The concentration of oxy-Hb was assessed by UV-Vis spectrophotometry (ε=58400 M^−1 cm^−1 at 577 nm per oxy-Hb tetramer).
Solutions of the test compounds (supra, 100 mM) were prepared in purified water and the pH was adjusted to 7.0-7.4 prior to incubations with stripped Hb in a molar ratio of 20:1. The mixtures were diluted in 3 ml of TES-saline buffer (30 mM TES, 140 mM saline, pH 7.4) and oxygen equilibrium curves were measured using a Hemox Analyzer apparatus (TCS Scientific Corp., USA). The P50 values and Hill coefficients were calculated by linear regression analysis from data points obtained between 40 and 60% oxygen saturation.
`O=C([O-])[C@@H](COP(=O)([O-])[O-])OP(=O)([O-])[O-].[Na+].[Na+].[Na+].[Na+].[Na+]` [BPG, 2,3-bisphospho-D-glyceric acid pentasodium salt, reference compound] was tested, and the “relative effectiveness in lowering Hb affinity to oxygen (comparison in words)” value was “BPG<ITPP<IHP”.
`CO[C@H]1O[C@H](CO)[C@@H](OP(=O)(O)O)[C@H](OP(=O)(O)O)[C@H]1OP(=O)(O)O` [Compound 8, 1-O-methyl-α-glucose 2,3,4-trisphosphate] was tested, and the “shift of the Hb oxygenation curves (P50)” value was 113%.
`CO[C@H]1O[C@H](CO)[C@@H](OP(=O)(O)O)[C@H](OP(=O)(O)O)[C@@H]1OP(=O)(O)O` [Compound 10, 1-O-methyl-α-mannose 2,3,4-trisphosphate] was tested, and the “relative effectiveness in lowering Hb affinity to oxygen (comparison in words)” value was “generally more effective than their corresponding glucose” and the “shift of the Hb oxygenation curves (P50)” value was 144%.
For `O=P(O)(O)O[C@H]1O[C@H](CO)[C@@H](OP(=O)(O)O)[C@H](OP(=O)(O)O)[C@H]1OP(=O)(O)O` [Compound 29, α-glucose 1,2,3,4-tetrakisphosphate], the “shift of the Hb oxygenation curves (P50)” value was 266%.
With `O=P(O)(O)O[C@@H]1O[C@H](CO)[C@@H](OP(=O)(O)O)[C@H](OP(=O)(O)O)[C@H]1OP(=O)(O)O` [Compound 30, β-glucose 1,2,3,4-tetrakisphosphate] the “shift of the Hb oxygenation curves (P50)” value was 201%.
For `O=P(O)(O)O[C@H]1O[C@H](CO)[C@@H](OP(=O)(O)O)[C@H](OP(=O)(O)O)[C@@H]1OP(=O)(O)O` [Compound 31, α-mannose 1,2,3,4-tetrakisphosphate], the “relative effectiveness in lowering Hb affinity to oxygen (comparison in words)” value was “generally more effective than their corresponding glucose”.
`O=P(O)(O)O[C@@H]1O[C@H](CO)[C@@H](OP(=O)(O)O)[C@H](OP(=O)(O)O)[C@@H]1OP(=O)(O)O` [Compound 32, β-mannose 1,2,3,4-tetrakisphosphate] was tested, and the “relative effectiveness in lowering Hb affinity to oxygen (comparison in words)” value was “generally more effective than their corresponding glucose”.
With `O=P(O)(O)O[C@H]1O[C@H](CO)[C@H](OP(=O)(O)O)[C@H](OP(=O)(O)O)[C@H]1OP(=O)(O)O` [Compound 33, α-galactose 1,2,3,4-tetrakisphosphate] the “shift of the Hb oxygenation curves (P50)” value was 226%.
`O=P(O)(O)O[C@@H]1O[C@H](CO)[C@H](OP(=O)(O)O)[C@H](OP(=O)(O)O)[C@H]1OP(=O)(O)O` [Compound 34, β-galactose 1,2,3,4-tetrakisphosphate] was tested, and the “shift of the Hb oxygenation curves (P50)” value was 259%.
With `CO[C@H]1O[C@H](COP(=O)(O)O)[C@@H](OP(=O)(O)O)[C@H](OP(=O)(O)O)[C@H]1OP(=O)(O)O` [Compound 41, 1-O-methyl-α-glucose tetrakisphosphate] the “shift of the Hb oxygenation curves (P50)” value was 264%.
For `CO[C@H]1O[C@H](COP(=O)(O)O)[C@@H](OP(=O)(O)O)[C@H](OP(=O)(O)O)[C@@H]1OP(=O)(O)O` [Compound 42, 1-O-methyl-α-mannose tetrakisphosphate], the “relative effectiveness in lowering Hb affinity to oxygen (comparison in words)” value was “less effective than the other mannose tetrakisphosphates derivatives”.
With `O=P(O)(O)OC[C@H]1O[C@H](OP(=O)(O)O)[C@H](OP(=O)(O)O)[C@@H](OP(=O)(O)O)[C@@H]1OP(=O)(O)O` [Compound 47, α-glucose pentakisphosphate] the “shift of the Hb oxygenation curves (P50)” value was 466%.
`O=P(O)(O)OC[C@H]1O[C@H](OP(=O)(O)O)[C@@H](OP(=O)(O)O)[C@@H](OP(=O)(O)O)[C@@H]1OP(=O)(O)O` [Compound 49, α-mannose pentakisphosphate] was tested, and the “relative effectiveness in lowering Hb affinity to oxygen (comparison in words)” value was “generally more effective than their corresponding glucose” and the “shift of the Hb oxygenation curves (P50)” value was 520%.
With `O=P(O)(O)OC[C@H]1O[C@H](OP(=O)(O)O)[C@H](OP(=O)(O)O)[C@@H](OP(=O)(O)O)[C@H]1OP(=O)(O)O` [Compound 51, α-galactose pentakisphosphate] the “shift of the Hb oxygenation curves (P50)” value was 449%.
With `O=P(O)(O)OC[C@H]1O[C@@H](O[C@H]2[C@H](OP(=O)(O)O)[C@@H](OP(=O)(O)O)C(OP(=O)(O)O)O[C@@H]2COP(=O)(O)O)[C@H](OP(=O)(O)O)[C@@H](OP(=O)(O)O)[C@H]1OP(=O)(O)O` (some centres unmarked) [Compound 55, lactose octakisphosphate] the “shift of the Hb oxygenation curves (P50)” value was 550%.
In the case of `O=P(O)(O)O[C@H]1[C@H](OP(=O)(O)O)[C@@H](OP(=O)(O)O)[C@H](OP(=O)(O)O)[C@@H](OP(=O)(O)O)[C@H]1OP(=O)(O)O` [IHP, myo-inositol hexakisphosphate, reference compound], the “relative effectiveness in lowering Hb affinity to oxygen (comparison in words)” value is reported as “BPG<ITPP<IHP” and the “shift of the Hb oxygenation curves (P50)” value is reported as 466%.
With `O=P1([O-])OC2C3OP(=O)([O-])OP(=O)([O-])OC3C3OP(=O)([O-])OP(=O)([O-])OC3C2OP(=O)([O-])O1.[Na+].[Na+].[Na+].[Na+].[Na+].[Na+]` (centres unmarked) [ITPP, myo-inositol trispyrophosphate hexasodium salt, reference compound] the “relative effectiveness in lowering Hb affinity to oxygen (comparison in words)” value was “BPG<ITPP<IHP”.
